In patent EP0060659A1, “Pharmaceutical composition for tumour treatment and process for preparing it” (NATIONAL FOUNDATION FOR CANCER RESEARCH, INC., priority 1981, dated 1982):
Where “and” joins values, the source holds several entries; their conditions need not be identical. Identical values can stand only once.

Assays:
Ehrlich ascites cells = experiment: Ehrlich ascites tumour in mice, test substance in drinking water (Example 2); assay type: in vivo, adult female white Swiss mice; parameters: average weight of the tumours / weight of the excised tissues (tumour): unit not given here
Protocol: 30 adult female white Swiss mice were inoculated behind the right foreleg on the ventral side with about 5 x 10^6 Ehrlich ascites cells in 0.2 ml of physiological saline. The mice were randomized and divided into three groups, each group containing 10 animals. All animals received water to drink during days 1 and 2. On day 3, the water of one group (Group B) was replaced by a 0.05 molar solution of glyoxal whilst the water of another group (Group C) was replaced by a 0.05 molar solution of a glyoxal-cysteine adduct prepared essentially as described in Example 1. The third, or control, group (Group A) continued to receive water. All groups could drink ad libidum.
No weight loss was observed.
All animals were narcotized and their tumours excised and cleaned from the surrounding tissues.
In the cases where the tumour which developed was slightly ascitic, the fluid was not weighed and this is believed to account for the rather lower weight of these tumours.

tumour cells = details: cited from earlier work

Row | SMILES | toxic symptoms or loss of weight (Ehrlich ascites cells; after 7 days, 0.05 molar solution as drinking water) | size or form of the tumour on visual inspection (Ehrlich ascites cells; after 7 days, compared with control group) | inhibition over the control (Ehrlich ascites cells; from average tumour weights, 0.05 molar solution as drinking water) | average weight of the tumours (Ehrlich ascites cells; group of 10 mice, 0.05 molar solution as drinking water from day 3, control group average 1200) | weight of the excised tissues (tumour) (Ehrlich ascites cells; individual animals, 0.05 molar solution as drinking water from day 3, ad libitum, excised after 7 days, * = slightly ascitic tumour, fluid not weighed) | toxicity to cells of normal tissues (tumour cells)
1 | O=CC=O [glyoxal] | no toxic symptoms or loss of weight | No significant decrease | about 18% | 985 | 800 and 530 and 190 and 90* and 1270 and 330 and 1220 and 1700 and 2740 and 980 | 
2 | CC(O)C=CC=O (stereo not drawn) [4-hydroxypentenal] |  |  |  |  |  | only slightly toxic
